Measurements published in ChEMBL document CHEMBL5512667, “Discovery of Potent, Selective, and Orally Available IRE1α Inhibitors Demonstrating Comparable PD Modulation to IRE1 Knockdown in a Multiple Myeloma Model” (J Med Chem, 2024).
Values after ≈ are worked out from the molar mass of the structure shown.

Columns and labels:
[1] = molecular target: T1, Serine/threonine-protein kinase/endoribonuclease IRE1 (Homo sapiens, UniProt O75460); assay: Inhibition of His-tagged IRE1alpha (G547 to L977 residues) (unknown origin) expressed in Sf9 cells preincubated with anti-His Europium labeled antibody for 1 hr prior to compound addition followed by tracer 236 addition and measured after 1 hr by TR-FRET assay
T1 sequence (O75460 whole entry, the tested form may be a part): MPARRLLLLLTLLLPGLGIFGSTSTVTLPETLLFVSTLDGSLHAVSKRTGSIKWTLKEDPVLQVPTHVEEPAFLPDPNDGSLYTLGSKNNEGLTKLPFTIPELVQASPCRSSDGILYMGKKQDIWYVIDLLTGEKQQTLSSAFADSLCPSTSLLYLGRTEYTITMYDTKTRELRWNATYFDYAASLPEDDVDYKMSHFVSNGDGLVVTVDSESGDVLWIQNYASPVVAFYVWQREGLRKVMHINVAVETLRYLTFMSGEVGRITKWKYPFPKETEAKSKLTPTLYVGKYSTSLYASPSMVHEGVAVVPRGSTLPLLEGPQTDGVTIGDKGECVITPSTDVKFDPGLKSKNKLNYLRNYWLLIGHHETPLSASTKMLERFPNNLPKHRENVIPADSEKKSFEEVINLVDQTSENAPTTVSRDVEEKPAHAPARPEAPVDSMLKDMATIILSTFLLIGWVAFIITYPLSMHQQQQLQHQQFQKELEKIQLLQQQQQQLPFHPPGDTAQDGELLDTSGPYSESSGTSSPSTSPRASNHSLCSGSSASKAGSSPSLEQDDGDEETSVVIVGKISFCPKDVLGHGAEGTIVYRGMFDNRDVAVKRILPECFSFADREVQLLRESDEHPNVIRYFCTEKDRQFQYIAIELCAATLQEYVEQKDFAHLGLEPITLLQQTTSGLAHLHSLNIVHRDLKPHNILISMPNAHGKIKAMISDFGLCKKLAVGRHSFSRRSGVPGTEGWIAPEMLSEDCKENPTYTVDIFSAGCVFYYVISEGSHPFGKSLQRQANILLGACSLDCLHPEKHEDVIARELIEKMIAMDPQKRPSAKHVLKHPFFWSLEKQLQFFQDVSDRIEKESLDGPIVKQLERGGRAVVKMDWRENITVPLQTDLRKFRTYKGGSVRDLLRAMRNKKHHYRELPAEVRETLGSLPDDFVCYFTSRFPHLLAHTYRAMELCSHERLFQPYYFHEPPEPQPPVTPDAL

[2] = molecular target: T1, Serine/threonine-protein kinase/endoribonuclease IRE1; assay: Inhibition of IRE1alpha RNase activity (unknown origin) using XBP1 as substrate preincubated for 1 hr followed by thapsigargin stimulation for 5 hrs by One-Glo luciferase reagent based luminescence assay
[3] = molecular target: T1, Serine/threonine-protein kinase/endoribonuclease IRE1; assay: Inhibition of IRE1alpha RNase activity (Q470 to L977 residues) (unknown origin) expressed in Sf9 cells using mini-XBP-1 stem-loop RNA as substrate measured every 2 mins interval for 50 mins by FRET assay
[4] = Bioavailability in CD-1 mouse at 10 mg/kg, po or 1 mg/kg, iv measured upto 24 hrs by LC-MS/MS analysis; format: ADME, organism-based; settings: in vivo
[5] = Volume of distribution at steady state in CD-1 mouse at 10 mg/kg, po or 1 mg/kg, iv measured upto 24 hrs by LC-MS/MS analysis; format: ADME, organism-based; settings: in vivo
[6] = Apparent permeability across apical to basolateral side in MDCK cells at 10 uM incubated for 3 hrs by LC-MS/MS method; format: ADME, cell-based, Canis lupus familiaris; settings: dog
[7] = Kinetic solubility of compound at pH 7.4; format: physicochemical; settings: buffer, read-out: Kinetic_solubility
[8] = Plasma protein binding in mouse incubated for 4 hrs by LC-MS/MS based rapid equilibrium dialysis method; format: ADME, cell-free; settings: read-out: PPB (converted)
[9] = Half-life in CD-1 mouse at 10 mg/kg, po or 1 mg/kg, iv measured upto 24 hrs by LC-MS/MS analysis; format: ADME, organism-based; settings: in vivo
[10] = Permeability across apical to basolateral side in MDCK cells; format: ADME, cell-based, Canis lupus familiaris; settings: dog, read-out: permeability

SMILES	IC50 [1]	IC50 [2]	IC50 [3]	also measured
O=S(=O)(Cc1ccccc1)Nc1c(F)cc(Oc2ncccc2-c2ccnc(N[C@@H]3CNC[C@H](CF)C3)n2)c(F)c1F	0.26 nM	32 nM	5.2 nM	bioavailability [4]: 36%; Vdss [5]: 3.51 L/kg; Papp A→B at 3 h, 10 µM [6]: 2.6 ×10⁻⁶ cm/s; solubility kinetic [7]: 28 µM (≈ 16.9 µg/mL); fraction unbound at 4 h [8]: 0.029; half-life [9]: 45 min
Cc1cc(NS(=O)(=O)Cc2ccccc2)c2ccccc2c1Oc1ncccc1-c1ccnc(N[C@H]2CCCNC2)n1	0.38 nM	31 nM	5.4 nM	
Cc1ccc2c(NS(=O)(=O)c3ccccc3Cl)cccc2c1Oc1ncccc1-c1ccnc(N[C@H]2CCCNC2)n1	0.48 nM	40 nM	9.2 nM	Papp A→B [10]: 1 ×10⁻⁶ cm/s
Cc1cc(NS(=O)(=O)c2ccccc2Cl)c2ccccc2c1Oc1ncccc1-c1ccnc(N[C@H]2CC[C@H](N)CC2)n1	0.85 nM			
Cc1c(Oc2ncccc2-c2ccnc(N[C@H]3CCCNC3)n2)cc(F)c(NS(=O)(=O)Cc2ccccc2)c1F	0.29 nM	37 nM	29 nM	Papp A→B at 3 h, 10 µM [6]: 1.1 ×10⁻⁶ cm/s
Cc1ccc2c(NS(=O)(=O)CCC3CC3)cccc2c1Oc1ncccc1-c1ccnc(N[C@H]2CCCNC2)n1	1.8 nM	300 nM	19 nM	
CC(C)(C)c1nc(-c2ccc(NC(=O)Nc3cccc(C(F)(F)F)c3)c3ccccc23)c2c(N)nccn12	36 nM	180 nM	200 nM	
CCCS(=O)(=O)Nc1cccc2c(Oc3ncccc3-c3ccnc(N[C@H]4CCCNC4)n3)c(C)ccc12	4.7 nM	140 nM	6.3 nM	

Further lines, with some results ahead:

IC50 [1]	IC50 [2]	IC50 [3]	SMILES	also measured
2 nM	2700 nM	23 nM	O=S(=O)(Cc1ccccc1)Nc1c(F)cc(Oc2ncccc2-c2ccnc(N[C@@H]3CNC[C@H](F)C3)n2)c(F)c1F	
> 1000 nM	> 50000 nM	> 10000 nM	Cc1ccc2c(NS(=O)(=O)c3ccccc3Cl)cccc2c1Oc1ncccc1-c1ccnc(Nc2cn[nH]c2)n1	
1.1 nM	84 nM	8.7 nM	Cc1ccc2c(NS(=O)(=O)CCC(F)(F)F)cccc2c1Oc1ncccc1-c1ccnc(N[C@H]2CCCNC2)n1	
2.2 nM	200 nM	17 nM	Cc1ccc2c(NS(=O)(=O)C3CCCCC3)cccc2c1Oc1ncccc1-c1ccnc(N[C@H]2CCCNC2)n1	
17 nM	2300 nM	250 nM	Cc1ccc2c(NS(=O)(=O)c3ccccc3Cl)cccc2c1Oc1ncccc1-c1ccnc(N[C@@H]2CNCC(F)(F)C2)n1	
0.66 nM	42 nM	3.3 nM	Cc1ccc2c(Oc3ncccc3-c3ccnc(N[C@H]4CCCNC4)n3)c(C)ccc2c1NS(=O)(=O)CCC(F)(F)F	
0.35 nM	18 nM	17 nM	Cc1ccc2c(NS(=O)(=O)Cc3ccccc3)cccc2c1Oc1ncccc1-c1ccnc(N[C@H]2CCCNC2)n1	
0.78 nM	540 nM	15 nM	O=S(=O)(Cc1ccccc1)Nc1c(F)cc(Oc2ncccc2-c2ccnc(N[C@@H]3CNC[C@@H](CF)C3)n2)c(F)c1F	
